Entries after “also recorded” stand apart in the source; their conditions may differ.
These compounds were tested on MDCK II cells challenged with B. cereus AH187 supernatant.
Format: cell-based, canine

| Compound | TEER of MDCK II cells challenged with supernatant |
| --- | --- |
| O=P(O)(O)c1nc2cc(Cl)c(Cl)cc2nc1P(=O)(O)O [Compound 13, (6,7-Dichloroquinoxaline-2,3-diyl)bis(phosphonic acid)] | retain the TEER of the challenged cells; also recorded: maintained the TEER of MDCK II cells challenged with B. cereus supernatant |
| Cc1ccc2nc(P(=O)(O)O)c(P(=O)(O)O)nc2c1 [Compound 11, (6-Methylquinoxaline-2,3-diyl)bis(phosphonic acid)] | maintained the TEER of MDCK II cells challenged with B. cereus supernatant |
| O=P([O-])(O)C(Sc1ccc(Cl)cc1)P(=O)([O-])O.[Na+].[Na+] [Tiludronate disodium, reference compound] | maintained the TEER of MDCK II cells challenged with B. cereus supernatant |
| O=P(O)(O)c1nc2ccc(Br)cc2nc1P(=O)(O)O [Compound 10, (6-Bromoquinoxaline-2,3-diyl)bis(phosphonic acid)] | retain the TEER of the challenged cells |
| O=P(O)(O)c1nc2ccc(-c3ccc(Cl)cc3)cc2nc1P(=O)(O)O [Compound 15, (6-(4-Chlorophenyl)quinoxaline-2,3-diyl)bis(phosphonic acid)] | maintained the TEER of MDCK II cells challenged with B. cereus supernatant |

Reference: paper PMC9574867, “Discovery and Characterization of Synthesized and FDA-Approved Inhibitors of Clostridial and Bacillary Collagenases” (Journal of Medicinal Chemistry, 2022)
